Experimental data reported in US20140271723A1 (priority 2013, published 2014).

Experiments:
CRSBP-1 = CRSBP-1 (Mus musculus, UniProt Q8BHC0); settings: cited from earlier work
[1] = system: lymphatic endothelial cell (LEC) monolayers; settings: cited from earlier work
pseudorabies virus (PRV) = system: pseudorabies virus (PRV); parameters: species or system pigs; settings: pig, in vivo
[2] = system: lymphatic intercellular junctions; settings: mouse, in vivo; cited from earlier work

Chain of CRSBP-1 (Q8BHC0 24-318): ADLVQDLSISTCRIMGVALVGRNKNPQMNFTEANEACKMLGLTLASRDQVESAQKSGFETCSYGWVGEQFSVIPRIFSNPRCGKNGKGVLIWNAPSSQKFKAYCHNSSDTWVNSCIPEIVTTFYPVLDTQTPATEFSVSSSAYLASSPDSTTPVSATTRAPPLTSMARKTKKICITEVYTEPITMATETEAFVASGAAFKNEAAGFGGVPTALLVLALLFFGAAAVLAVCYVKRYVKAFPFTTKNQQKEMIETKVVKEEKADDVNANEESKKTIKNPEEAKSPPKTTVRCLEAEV

Row | Substance | binding to CRSBP-1 (CRSBP-1) | disruption of VE-cadherin-mediated discontinuous intercellular adhesion and opening of intercellular junctions [1] | increase in serum antibody titer as compared to vaccine only (pseudorabies virus (PRV)) [fold] | activity in control experiments as compared to VEGF peptide and PDGF peptide [2]
1 | KKSVRGKGKGQKRKRKKSRYKSWSV [VEGF peptide] | high affinity | induce disruption | – | –
2 | YVRVRRPPKGKHRKFKHTH [PDGF peptide] | high affinity | induce disruption | ~4 | –
3 | polyarginine | – | – | – | very weak activity
4 | polylysine | – | – | – | very weak activity
